Assay results as given in PubChem BioAssay (NCI).
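Interpolation was linear, between the two tested concentrations surrounding the appropriate level; five concentrations were tested over 48 hours in 96-well plates. TGI denotes the concentration required for complete inhibition of growth.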

Assays:
Experiment in all cases: growth of human tumour cells (NCI), 48 h
[1] = tested on: OVCAR-8 ovarian
[2] = tested on: KM12 colon
[3] = tested on: RPMI-8226 leukemia
[4] = tested on: CCRF-CEM leukemia
[5] = tested on: NCI-H460 lung
[6] = tested on: COLO 205 colon
[7] = tested on: HT29 colon
[8] = tested on: MDA-MB-435
[9] = tested on: SNB-19 CNS
[10] = tested on: A549 NSCLC
[11] = tested on: MALME-3M melanoma
[12] = tested on: DU-145 prostate
[13] = tested on: NCI/ADR-RES ovarian
[14] = tested on: MCF7 breast
[15] = tested on: UACC-62 melanoma
[16] = tested on: HCC-2998 colon
[17] = tested on: ACHN renal
[18] = tested on: SK-MEL-28 melanoma
[19] = tested on: NCI-H23 lung
[20] = tested on: U251 CNS
[21] = tested on: SF-295 CNS
[22] = tested on: SNB-75 CNS
[23] = tested on: OVCAR-5 ovarian
[24] = tested on: MOLT-4 leukemia
[25] = tested on: NCI-H226 lung
[26] = tested on: MDA-MB-231 breast
[27] = tested on: RXF 393 renal
[28] = tested on: 786-0 renal
[29] = tested on: MDA-N
[30] = tested on: LOX IMVI melanoma
[31] = tested on: SK-OV-3 ovarian
[32] = tested on: PC-3 prostate
[33] = tested on: TK-10 renal
[34] = tested on: SF-268 CNS
[35] = tested on: SK-MEL-5 melanoma
[36] = tested on: HCT-15 colon
[37] = tested on: CAKI-1 renal
[38] = tested on: SR leukemia
[39] = tested on: HCT-116 colon
[40] = tested on: UACC-257 melanoma
[41] = tested on: HS 578T breast
[42] = tested on: SF-539 CNS
[43] = tested on: EKVX NSCLC
[44] = tested on: K-562 leukemia
[45] = tested on: T-47D breast
[46] = tested on: SN12C renal
[47] = tested on: SW-620 colon
[48] = tested on: HOP-62 NSCLC
[49] = tested on: OVCAR-3 ovarian
[50] = tested on: A498 renal
[51] = tested on: M14 melanoma
[52] = tested on: HOP-92 NSCLC
[53] = tested on: HL-60(TB) leukemia
[54] = tested on: SK-MEL-2 melanoma
[55] = tested on: BT-549 breast
[56] = tested on: OVCAR-4 ovarian
[57] = tested on: IGROV1 ovarian
[58] = tested on: NCI-H522 lung
[59] = tested on: UO-31 renal

## CCOC(=S)SSSC(=S)OCC
[1]
  TGI: 32.3 µM
[2]
  TGI: > 100 µM
[3]
  TGI: 61.1 µM
[4]
  TGI: > 100 µM
[5]
  TGI: > 100 µM
[6]
  TGI: > 100 µM
[7]
  TGI: > 100 µM
[8]
  TGI: > 100 µM
[9]
  TGI: > 100 µM
[10]
  TGI: > 100 µM
[11]
  TGI: > 100 µM
[12]
  TGI: > 100 µM
[13]
  TGI: > 100 µM
[14]
  TGI: > 100 µM
[15]
  TGI: > 100 µM
[16]
  TGI: > 100 µM
[17]
  TGI: 41.9 µM
[18]
  TGI: > 100 µM
[19]
  TGI: > 100 µM
[20]
  TGI: > 100 µM
[21]
  TGI: > 100 µM
[22]
  TGI: > 100 µM
[23]
  TGI: 86.6 µM
[24]
  TGI: 94.7 µM
[25]
  TGI: > 100 µM
[26]
  TGI: > 100 µM
[27]
  TGI: > 100 µM
[28]
  TGI: 28.5 µM
[29]
  TGI: > 100 µM
[30]
  TGI: > 100 µM
[31]
  TGI: > 100 µM
[32]
  TGI: > 100 µM
[33]
  TGI: > 100 µM
[34]
  TGI: > 100 µM
[35]
  TGI: > 100 µM
[36]
  TGI: 46.8 µM
[37]
  TGI: > 100 µM
[38]
  TGI: 42.1 µM
[39]
  TGI: 53.7 µM
[40]
  TGI: > 100 µM
[41]
  TGI: > 100 µM
[42]
  TGI: > 100 µM
[43]
  TGI: > 100 µM
[44]
  TGI: > 100 µM
[45]
  TGI: 60 µM
[46]
  TGI: 70 µM
[47]
  TGI: > 100 µM
[48]
  TGI: > 100 µM
[49]
  TGI: > 100 µM
[50]
  TGI: > 100 µM
[51]
  TGI: > 100 µM
[52]
  TGI: > 100 µM
[53]
  TGI: > 100 µM

## O=C(O)C1CCCN(CCc2c[nH]c3ccccc23)C1 (configuration not stated)
[54]
  TGI: > 100 µM
[1]
  TGI: > 100 µM
[55]
  TGI: > 100 µM
[2]
  TGI: > 100 µM
[3]
  TGI: > 100 µM
[4]
  TGI: > 100 µM
[5]
  TGI: > 100 µM
[6]
  TGI: > 100 µM
[7]
  TGI: > 100 µM
[8]
  TGI: > 100 µM
[9]
  TGI: > 100 µM
[10]
  TGI: > 100 µM
[11]
  TGI: > 100 µM
[12]
  TGI: > 100 µM
[13]
  TGI: > 100 µM
[14]
  TGI: > 100 µM
[15]
  TGI: > 100 µM
[16]
  TGI: > 100 µM
[17]
  TGI: > 100 µM
[18]
  TGI: > 100 µM
[19]
  TGI: > 100 µM
[20]
  TGI: > 100 µM
[21]
  TGI: > 100 µM
[22]
  TGI: > 100 µM
[23]
  TGI: > 100 µM
[24]
  TGI: > 100 µM
[25]
  TGI: > 100 µM
[26]
  TGI: > 100 µM
[27]
  TGI: > 100 µM
[28]
  TGI: > 100 µM
[29]
  TGI: > 100 µM
[30]
  TGI: > 100 µM
[31]
  TGI: > 100 µM
[32]
  TGI: > 100 µM
[33]
  TGI: > 100 µM
[34]
  TGI: > 100 µM
[36]
  TGI: > 100 µM
[37]
  TGI: > 100 µM
[56]
  TGI: > 100 µM
[39]
  TGI: > 100 µM
[40]
  TGI: > 100 µM
[57]
  TGI: > 100 µM
[42]
  TGI: > 100 µM
[43]
  TGI: > 100 µM
[44]
  TGI: > 100 µM
[45]
  TGI: > 100 µM
[46]
  TGI: > 100 µM
[47]
  TGI: > 100 µM
[58]
  TGI: > 100 µM
[48]
  TGI: > 100 µM
[49]
  TGI: > 100 µM
[50]
  TGI: > 100 µM
[51]
  TGI: > 100 µM
[52]
  TGI: > 100 µM
[53]
  TGI: > 100 µM

## N#CC1C(=O)N(c2ccccc2)NC12OC(=O)c1ccncc12 (configuration not stated)
[54]
  TGI: > 20 µM
[1]
  TGI: > 20 µM
[55]
  TGI: > 20 µM
[3]
  TGI: > 20 µM
[4]
  TGI: > 20 µM
[5]
  TGI: > 20 µM
[6]
  TGI: > 20 µM
[7]
  TGI: > 20 µM
[59]
  TGI: > 20 µM
[8]
  TGI: > 20 µM
[9]
  TGI: > 20 µM
[10]
  TGI: > 20 µM
[11]
  TGI: > 20 µM
[12]
  TGI: > 20 µM
[13]
  TGI: > 20 µM
[14]
  TGI: > 20 µM
[15]
  TGI: > 20 µM
[16]
  TGI: > 20 µM
[17]
  TGI: > 20 µM
[18]
  TGI: > 20 µM
[19]
  TGI: > 20 µM
[20]
  TGI: > 20 µM
[21]
  TGI: > 20 µM
[23]
  TGI: > 20 µM
[24]
  TGI: > 20 µM
[25]
  TGI: > 20 µM
[26]
  TGI: > 20 µM
[27]
  TGI: > 20 µM
[28]
  TGI: > 20 µM
[29]
  TGI: > 20 µM
[30]
  TGI: > 20 µM
[31]
  TGI: > 20 µM
[32]
  TGI: > 20 µM
[35]
  TGI: > 20 µM
[36]
  TGI: > 20 µM
[37]
  TGI: > 20 µM
[56]
  TGI: > 20 µM
[38]
  TGI: > 20 µM
[39]
  TGI: > 20 µM
[40]
  TGI: > 20 µM
[57]
  TGI: > 20 µM
[42]
  TGI: > 20 µM
[43]
  TGI: > 20 µM
[44]
  TGI: > 20 µM
[45]
  TGI: > 20 µM
[46]
  TGI: > 20 µM
[47]
  TGI: > 20 µM
[58]
  TGI: > 20 µM
[49]
  TGI: > 20 µM
[50]
  TGI: > 20 µM
[51]
  TGI: > 20 µM
[52]
  TGI: > 20 µM
[53]
  TGI: > 20 µM

## c1ccc2c(c1)CC1=C(O2)c2ccccc2OC1
[54]
  TGI: 70.3 µM
[1]
  TGI: > 100 µM
[55]
  TGI: 51.1 µM
[2]
  TGI: > 100 µM
[3]
  TGI: 67.3 µM
[4]
  TGI: > 100 µM
[6]
  TGI: 38.3 µM
[7]
  TGI: > 100 µM
[59]
  TGI: > 100 µM
[8]
  TGI: 86.3 µM
[10]
  TGI: > 100 µM
[11]
  TGI: > 100 µM
[12]
  TGI: > 100 µM
[13]
  TGI: > 100 µM
[14]
  TGI: > 100 µM
[15]
  TGI: 92.8 µM
[16]
  TGI: 42.2 µM
[17]
  TGI: > 100 µM
[19]
  TGI: > 100 µM
[20]
  TGI: 59.2 µM
[21]
  TGI: > 100 µM
[23]
  TGI: > 100 µM
[24]
  TGI: 80.1 µM
[25]
  TGI: > 100 µM
[26]
  TGI: 76.2 µM
[28]
  TGI: 32.6 µM
[29]
  TGI: 45.5 µM
[30]
  TGI: 40.2 µM
[31]
  TGI: > 100 µM
[32]
  TGI: > 100 µM
[33]
  TGI: 94.3 µM
[34]
  TGI: > 100 µM
[35]
  TGI: 44.3 µM
[36]
  TGI: 72.6 µM
[37]
  TGI: 49.5 µM
[56]
  TGI: 88.2 µM
[38]
  TGI: > 100 µM
[39]
  TGI: 30.6 µM
[40]
  TGI: > 100 µM
[57]
  TGI: > 100 µM
[42]
  TGI: 71.6 µM
[43]
  TGI: 45.7 µM
[45]
  TGI: 67.9 µM
[46]
  TGI: 37.4 µM
[47]
  TGI: 42.2 µM
[58]
  TGI: 44.5 µM
[48]
  TGI: > 100 µM
[49]
  TGI: 48.7 µM
[50]
  TGI: > 100 µM
[51]
  TGI: > 100 µM
[52]
  TGI: 95 µM
